Experimental data published in patent US10934297B2, “5-heteroaryl substituted indazole-3-carboxamides and preparation and use thereof” (Samumed, LLC, priority 2018, dated 2021).
pEC50, pIC50: −log10 of the molar value. Like-named read-outs stand apart in the source and are kept apart here.

Tests used:
IL-6 = IL-6 inhibition in LPS-stimulated human peripheral blood mononuclear cells (HTRF); format: cell-based; conditions: for pEC50: huPBMCs, LPS 50 ng/mL, 22 hours, IL-6 HTRF; for inhibition at 10 µM: read-out: percent inhibition at 10 μM
In short: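 HTRF 665/620 nm ratio, read after 3 h antibody incubation at room temperature, quantified IL-6 released by fresh human PBMCs (1×10e6 cells/mL, 1% FBS-RPMI). The cells got compound, then 50 ng/mL LPS at 2 h, followed by a further 22 h at 37° C. EC50 came from DMSO-normalized readings run in duplicate.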

[1] = system: Wnt activity (Sp5-Luc reporter in SW480 cells); experiment: Screening assay for Wnt activity: Sp5-Luc reporter gene assay in SW480 colon carcinoma cells; format: cell-based, human; conditions: 36 to 48 hours
In short: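 EC50 values come from a variable-slope four-parameter fit of luminescence normalized to DMSO-only wells. The read-out follows 36–48 h incubation at 37 °C, 5% CO2, in DMEM containing 1% fetal bovine serum. Cells are hygromycin-selected SW480 stably expressing firefly luciferase under a Wnt-responsive Sp5 promoter (eight TCF/LEF sites).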

DYRK1A kinase = DYRK1A kinase (Homo sapiens (Human), UniProt Q13627); experiment: DYRK1A kinase assay (Ser/Thr 18 peptide Z-lyte FRET); format: biochemical; conditions: read-out: EC50 (method: IC50)
In short: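 Kinase reactions with compound ran 1 h at room temperature in duplicate, and development reagent was then added for another hour.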

[2] = system: primary human fibroblasts derived from IPF patients (LL29 cells); experiment: Inhibition of the fibrotic process: αSMA staining in TGF-β1 treated LL29 fibroblasts; format: cell-based; conditions: for pEC50: LL29 cells, TGF-β1 20 ng/mL, 4 days, % αSMA positive cells
In short: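 LL29 fibroblasts from IPF patients, in F12 medium with 1% FBS, treated with TGF-β1 plus compound; TGF-β1 with DMSO as positive control, DMSO alone as negative control. After 4 days' incubation, SYTOX green nucleic acid stain added at 1 μM final, 30 min at room temperature.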

GSK3β kinase = GSK3β kinase (Homo sapiens (Human), UniProt P49841); experiment: GSK3β kinase assay (Ser/Thr 09 peptide Z-lyte FRET); format: biochemical; conditions: read-out: EC50 (method: IC50)
Chain of GSK3β kinase (P49841 whole entry): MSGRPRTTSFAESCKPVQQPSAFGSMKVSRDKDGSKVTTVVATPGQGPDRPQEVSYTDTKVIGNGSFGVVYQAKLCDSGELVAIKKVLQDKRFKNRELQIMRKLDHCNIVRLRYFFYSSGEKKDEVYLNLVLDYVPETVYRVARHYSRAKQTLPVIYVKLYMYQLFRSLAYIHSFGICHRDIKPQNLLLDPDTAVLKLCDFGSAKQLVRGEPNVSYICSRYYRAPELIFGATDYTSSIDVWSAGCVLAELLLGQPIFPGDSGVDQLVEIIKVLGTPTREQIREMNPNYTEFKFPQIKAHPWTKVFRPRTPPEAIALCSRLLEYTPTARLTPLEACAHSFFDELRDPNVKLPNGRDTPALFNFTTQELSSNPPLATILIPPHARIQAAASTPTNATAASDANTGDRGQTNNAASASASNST
In short: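 Non-radioactive Z-lyte FRET read-out, kinase activity expressed as coumarin/fluorescein emission ratio. Compounds incubated with the reaction mixture one hour at room temperature in duplicate, then development buffer added for another hour. IC50 from non-linear regression of dose-response curves.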

[3] = system: primary human mesenchymal stem cells (hMSCs); experiment: Tenocyte differentiation assay (SCXA-positive cells) in hMSCs; format: cell-based; conditions: for pEC50: hMSCs, 4 days, SCXA positive cells; for percent in parentheses under EC50 >100: given for EC50 >100 μM, meaning not defined in this example
Text: Representative compounds were screened using primary human mesenchymal stem cells (hMSCs) to determine their ability to induce tenocyte differentiation (process by which tendon is developed).
Primary human mesenchymal stem cells (hMSCs) were purchased from Lonza (Walkersville, Md.) and expanded in Mesenchymal Stem Cell Growth Media (Lonza). Cells between passage 3 and 6 were used for the experiments.
Cells were fixed using 4% formaldehyde (Electron Microscopy Sciences), and stained with anti-Sclerasis (anti-SCXA) antibodies (Abgent, San Diego, Calif.) [Webb S., et.al., Retinoic acid receptor signaling preserves tendon stem cell characteristics and prevents spontaneous differentiation in vitro, Stem Cell Research & Therapy 2016, 7:45] overnight at 4° C. […] Number of cells positive for SCXA in each well was quantified using the CellInsight CX5. Data was normalized to the average of 12 DMSO treated wells on the same plate using Dotmatics Studies module. The normalized averages (fold change over DMSO) of 3 replicate wells for each compound concentration were calculated. Due to solubility limitations of some of the compounds, values for higher doses were manually corrected and curve fitting and EC50 determinations were performed using Dotmatics Studies.

[4] = system: SW480 colon carcinoma cells; experiment: Cell viability assay (CellTiter-Glo) in SW480 colon carcinoma cells; format: cell-based, human; conditions: four days
In short: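 Viability was taken from CellTiter-Glo ATP luminescence, read about 12 min after reagent addition, relative to DMSO controls. The cells were Sp5-Luc reporter SW480 colon carcinoma cells, 2,000/well in 1% FBS DMEM, exposed to compound for four days at 37 °C.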

[5] = Homo sapiens, Mesenchymal stem cells, 96 h

| Compound | pEC50 (IL-6; Homo sapiens, PBMC) | pEC50 ([1]; Homo sapiens) | pIC50 (DYRK1A kinase) | pEC50 ([2]; Homo sapiens, Fibroblast, 96 h) | pIC50 (GSK3β kinase) | pEC50 [3, 5] | pEC50 ([4]; Homo sapiens, 96 h) | percent in parentheses under EC50 >100 [3] | inhibition at 10 µM (IL-6; Homo sapiens, PBMC) [%] | inhibition at 10 µM ([2]; Homo sapiens, Fibroblast, read-out: percent inhibition at 10 μM) [%] | pEC50 (IL-6) | pEC50 [1] | pIC50 (DYRK1A kinase; recombinant DYRK1A, 30 μM ATP, one hour, column head prints EC50) | pEC50 [2] | pIC50 (GSK3β kinase; recombinant GSK3β, 46 μM ATP, one hour, column head prints EC50) | pEC50 [3] | pEC50 [4] |
| --- | --- | --- | --- | --- | --- | --- | --- | --- | --- | --- | --- | --- | --- | --- | --- | --- | --- |
| CN1CCC(CNC(=O)c2n[nH]c3ccc(-c4cnn(C)c4)cc23)CC1 [Compound 147, 5-(1-Methyl-1H-pyrazol-4-yl)-N-((1-methylpiperidin-4-yl)methyl)-1H-indazole-3-carboxamide] | 5.97 | 5.41 | 7.59 | 6.14 | 7.82 | 5.58 | 5.17 |  |  |  |  |  |  |  |  |  |  |
| CC(C)n1cc(-c2cc3c(C(=O)Nc4ccc(OC5CCN(C)CC5)cc4)n[nH]c3cc2F)cn1 [Compound 158, 6-Fluoro-5-(1-isopropyl-1H-pyrazol-4-yl)-N-(4-((1-methylpiperidin-4-yl)oxy)phenyl)-1H-indazole-3-carboxamide] | 5.22 | 5.94 | 7.64 | 5.94 | 6.46 | < 4.00 | 6.11 | (17.4%) |  |  |  |  |  |  |  |  |  |
| Cc1coc(NC(=O)c2n[nH]c3cc(F)c(-c4cnn(C5CCN(C)CC5)c4)cc23)n1 [Compound 138, 6-Fluoro-N-(4-methyloxazol-2-yl)-5-(1-(1-methylpiperidin-4-yl)-1H-pyrazol-4-yl)-1H-indazole-3-carboxamide] | 5.56 | 6.90 | 8.22 | 6.36 | 6.71 | 5.31 | 6.98 |  |  |  |  |  |  |  |  |  |  |
| C[C@H](NC(=O)c1n[nH]c2c(F)cc(-c3cnn(C)c3)cc12)C(F)(F)F [Compound 135, (S)-7-Fluoro-5-(1-methyl-1H-pyrazol-4-yl)-N-(1,1,1-trifluoropropan-2-yl)-1H-indazole-3-carboxamide] | < 5.00 | < 5.00 | 6.36 | < 5.00 | 7.37 | < 4.00 | < 5.00 | (16.1%) | 50.6 |  |  |  |  |  |  |  |  |
| CN1CCC(n2cc(-c3ccc4[nH]nc(C(=O)Nc5ccc(OC(F)F)nc5)c4c3)cn2)CC1 [Compound 88, N-(6-(Difluoromethoxy)pyridin-3-yl)-5-(1-(1-methylpiperidin-4-yl)-1H-pyrazol-4-yl)-1H-indazole-3-carboxamide] | 5.06 | 6.36 | 7.80 | 6.20 | 6.11 | 5.59 | 6.47 |  |  |  |  |  |  |  |  |  |  |
| CC[C@H](NC(=O)c1n[nH]c2ccc(-c3cnc(C)n3C)cc12)C(F)(F)F [Compound 132, (S)-5-(1,2-Dimethyl-1H-imidazol-5-yl)-N-(1,1,1-trifluorobutan-2-yl)-1H-indazole-3-carboxamide] | < 5.00 | < 5.00 | 6.34 | < 5.00 | 6.97 | < 4.00 | < 5.00 | (26.5%) | 12.7 | 48.8 |  |  |  |  |  |  |  |
| 5-(1,2-Dimethyl-1H-imidazol-5-yl)-N-(2-methylthiazol-5-yl)-1H-indazole-3-carboxamide [Compound 139] |  |  |  |  |  |  |  | (21.2%) |  |  | 5.51 | 6.47 | 8.40 | 5.91 | 7.70 | < 4.00 | 6.33 |
| Cn1cc(-c2ccc3[nH]nc(C(=O)NC45CC6CC(CC(C6)C4)C5)c3c2)cn1 [Compound 137, N-((3s,5s,7s)-Adamantan-1-yl)-5-(1-methyl-1H-pyrazol-4-yl)-1H-indazole-3-carboxamide] | < 5.00 | 5.37 | 5.08 | 5.68 | 5.87 | 5.61 | 5.28 |  |  |  |  |  |  |  |  |  |  |
| CN1CCC(Oc2ccc(NC(=O)c3n[nH]c4c(F)cc(-c5cnn(C)c5)cc34)cc2)CC1 [Compound 152, 7-Fluoro-5-(1-methyl-1H-pyrazol-4-yl)-N-(4-((1-methylpiperidin-4-yl)oxy)phenyl)-1H-indazole-3-carboxamide] | 5.16 | 5.84 | 7.42 | 5.95 | 7.19 | < 4.00 | 6.11 | (34.7%) |  |  |  |  |  |  |  |  |  |
